The results in this text go back to US8796415B2, “Inhibitors of guanine exchange factors and their use as anticancer drugs” (Centre National de la Recherche Scientifique, priority 2009, dated 2014).

“Also recorded” adds a separate entry of the source. Ends that are not written are not given here.

Holding throughout (assay type): biochemical
Experiment [1] has as its target Tgat. Description: FRET fluorescence nucleotide exchange kinetics assay, Tgat/RhoA. Particulars: for Ki / inhibition of Tgat GEF activity in kinetics fluorescence assay: RhoA 1 μM, Tgat 0.5 μM; for Ki: GST-TRIP peptides up to 100 μM, read-out: apparent inhibition constant (Kiapp) towards Tgat; for inhibition of Tgat GEF activity in kinetics fluorescence assay: increasing GST-TRIP peptide concentrations up to 100 μM; for efficiency at inhibiting the exchange activity of Tgat relative to TRIPα: from Kiapp values. As for the experimental part:
FIG. 4 represents the inhibition of Tgat GEF activity by TRIPT16M/L17S (SEQ ID NO: 41) and TRIPE32G (SEQ ID NO: 40) in vitro. FRET fluorescence exchange assays were performed using constant concentrations of RhoA (1 μM), equal amounts (0.5 μM) of Tgat (left panel) or Trio DH2 (right panel), and increasing concentrations of GST-TRIP peptides, up to 100 μM. Results were expressed as kobs values plotted as a function of the indicated TRIP inhibitor concentration.
FIG. 5 represents a histogram showing the apparent inhibition constants (Ki app) of the TRIP peptides for Tgat and Trio DH2, as indicated. The values and error bars are calculated from at least three independent experiments. Error bars represent standard deviation
Specific exchange rates of Tgat were measured with a fluorescence-based kinetics assay, using a 6His-RhoA construct (gift of Dr Derewenda, Charlottesville University, Virginia) purified as described (Oleksy et al., 2004). Exchange activities were followed by fluorescence resonance energy transfer (FRET) between the GTPase tryptophanes (λex=292 nm) and the methylanthranyloil group of mant-GTP (λem=440 nm) as described (Zeeh et al., 2006). All fluorescence measurements were performed with a CARY Eclipse fluorimeter (Varian). For each kobs determination, RhoA (1 μM) and Tgat (or Trio DH2) were preincubated 3 min at 25° C. in 700 μL reaction buffer (50 mM Tris pH 7.5, 50 mM NaCl, 2 mM MgCl2, 1 mM DTT). The exchange reaction was initiated by 10 μM mant-GTP and measured for 10 min until the plateau was reached. kobs were calculated by fitting the FRET fluorescence changes to a single exponential, using the Kaleidagraph software. Specific exchange activities were calculated by linear regression of kobs values determined for a range of GEF concentrations (0, 0.2, 0.3, 0.4, 0.5 and 1 μM).
Radioactive [3H]-GDP dissociation assays were performed as described (Schmidt et al., 2002). Briefly, 0.15 μM GST-Trio DH2-PH2 was preincubated for 15 min with 3 μM of GST-TRIP inhibitors. The reaction was started by addition of 0.4 μM [3H]-GDP-loaded RhoA and 1 mM GTP, and the reaction mix was filtered after 0 min and 15 min incubation at 25° C. Inhibition efficiency is expressed as the ratio between [3H]-GDP-bound RhoA at 15 and 0 min. Apparent inhibition constants (Kiapp) of TRIP-like peptides were determined from kobs values obtained at increasing peptide concentrations using the above fluorescence nucleotide exchange assay. Kiapp was calculated from the hyperbolic fit of kobs values as a function of the inhibitor concentration as described (Zeeh et al., 2006). TRIP-like peptide specificity was assayed using mant-GTP fluorescence kinetics (λex=360 nm, λem=460 nm) in a FLX800 Microplate Fluorescence Reader (BioTek Instruments). 0.5 μM Tgat, p63RhoGEF, Lbc, and p115RhoGEF, or 0.1 μM Dbl and Trio DH1-PH1 were preincubated 5 min at 25° C. in the presence of 20 μM GST, GST-TRIPE32G or TRIPT16M/L17S and 1 μM mant-GTP. The exchange reaction was initiated by addition of 1 μM RhoA or RhoG and monitored for 10 min.

Another experiment has as its target T1, Lbc (Homo sapiens, UniProt Q12802).
T1 construct: GST-Dbl (DH-PH domain), GST-Lbc (DH-PH), GST-p63RhoGEF (DH domain) and GST-RhoG were purified as described previously; GST (N); made in house
T1 sequence (Q12802 1994-2333): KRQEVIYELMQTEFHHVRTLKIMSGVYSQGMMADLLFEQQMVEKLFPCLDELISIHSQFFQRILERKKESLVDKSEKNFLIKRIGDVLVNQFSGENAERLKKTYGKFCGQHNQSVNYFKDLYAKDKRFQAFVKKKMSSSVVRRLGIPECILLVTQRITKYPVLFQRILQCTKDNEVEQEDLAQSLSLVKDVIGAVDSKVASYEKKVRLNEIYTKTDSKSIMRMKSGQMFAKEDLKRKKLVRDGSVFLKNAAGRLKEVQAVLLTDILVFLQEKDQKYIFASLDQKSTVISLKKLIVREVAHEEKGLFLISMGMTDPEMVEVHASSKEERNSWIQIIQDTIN
Description: mant-GTP fluorescence kinetics specificity assay, RhoA/Lbc. The following applies: peptide 20 μM, 0.5 μM GEF, 1 μM RhoA. As for the experimental part:
(§1) Figures represent the comparison of TRIPE32G and TRIPT16M/L17S inhibition efficiency on different GTPase/RhoGEF systems, using 1 μM GTPase and 0.5 μM GEF as follows:
(§2) In each assay, the peptides were used at a concentration of 20 μM, corresponding to a 40 fold molar excess of inhibitor versus GEF. All fluorescence kinetics assays were performed using 1 μM mant-GTP. Results are expressed as Relative Fluorescence Units (RFU) versus time. The reaction performed in the absence of GEF reflects the spontaneous exchange activity of the GTPase.
(§3) Radioactive [3H]-GDP dissociation assays were performed as described (Schmidt et al., 2002). […] Inhibition efficiency is expressed as the ratio between [3H]-GDP-bound RhoA at 15 and 0 min. Apparent inhibition constants (Kiapp) of TRIP-like peptides were determined from kobs values obtained at increasing peptide concentrations using the above fluorescence nucleotide exchange assay. Kiapp was calculated from the hyperbolic fit of kobs values as a function of the inhibitor concentration as described (Zeeh et al., 2006). TRIP-like peptide specificity was assayed using mant-GTP fluorescence kinetics (λex=360 nm, λem=460 nm) in a FLX800 Microplate Fluorescence Reader (BioTek Instruments). […] The exchange reaction was initiated by addition of 1 μM RhoA or RhoG and monitored for 10 min.

The target in the next experiment is T2, p63RhoGEF (Homo sapiens, UniProt Q86VW2).
T2 construct: GST-p63RhoGEF (DH domain) and GST-RhoG were purified as described previously; GST (N); made in house
T2 sequence (Q86VW2 160-336 limits assumed): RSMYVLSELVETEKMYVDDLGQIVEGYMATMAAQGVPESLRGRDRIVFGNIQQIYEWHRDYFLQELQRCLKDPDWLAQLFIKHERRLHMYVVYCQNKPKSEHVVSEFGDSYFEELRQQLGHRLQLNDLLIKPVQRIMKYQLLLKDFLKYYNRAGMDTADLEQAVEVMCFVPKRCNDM
As to the kind of experiment: mant-GTP fluorescence kinetics specificity assay, RhoA/p63RhoGEF. The following applies: peptide 20 μM, 0.5 μM GEF, 1 μM RhoA. As to the method: as §1, §2, §3

In experiment [2] the test system is Tgat. As to the kind of experiment: mant-GTP fluorescence kinetics specificity assay, RhoA/Tgat. Particulars: peptide 20 μM, 0.5 μM Tgat, 1 μM RhoA, 1 μM mant-GTP. As to the method: as §1, §2, §3
A further experiment has as its system Dbl. Description: mant-GTP fluorescence kinetics specificity assay, RhoA/Dbl. Particulars: peptide 20 μM, 1 μM RhoA. As for the experimental part:
as §1, §2, §3

Chain of Dbl (P10911 495-809 limits assumed): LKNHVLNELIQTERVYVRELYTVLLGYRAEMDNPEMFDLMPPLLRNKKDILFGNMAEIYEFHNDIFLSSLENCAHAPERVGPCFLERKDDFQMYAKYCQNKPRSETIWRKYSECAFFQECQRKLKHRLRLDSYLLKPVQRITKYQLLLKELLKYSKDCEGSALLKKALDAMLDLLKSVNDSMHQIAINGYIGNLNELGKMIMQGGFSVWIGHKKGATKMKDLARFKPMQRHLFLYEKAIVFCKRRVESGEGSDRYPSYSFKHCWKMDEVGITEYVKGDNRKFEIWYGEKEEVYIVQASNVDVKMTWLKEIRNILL

Consider “AREGADGAICGYNLATLVMLGPSERVFCPLCEPCSSDIYELM [TRIPα]”, for which the Ki at Tgat [1] is 89 ± 33 µM. The “inhibition of Tgat GEF activity in kinetics fluorescence assay” value (“inhibition of Tgat GEF activity” below) in the experiment with Tgat [1] is “rather ineffective”; in the experiment with Tgat [1] (listed as GST-TRIPα), “no effect”.

Regarding “GST-TRIPE32G (AREGADGAICGYNLATLVMLGPSERVFCPLCGPCSSDIYELM; cysteine pairing not given here; also: GST fusion)”, in the experiment with Lbc, the “effect on exchange activity of Lbc/RhoA” value was “no effect”. In addition, the “effect on exchange activity of p63RhoGEF/RhoA” value with p63RhoGEF is reported as “no effect”. The “inhibition of Tgat exchange activity on RhoA” value in the experiment on Tgat [2] is “fully inhibited”. The “effect on exchange activity of Dbl/RhoA” value in the experiment on Dbl was “no effect”. Further, in the experiment with Tgat [1], the “efficiency relative to TRIPα (Tgat GEF activity)” value was 15 fold, the Ki is 7.4 ± 5 µM, the “inhibition of Tgat GEF activity” value is recorded as “inhibited Tgat GEF activity in a dose-dependent manner; also recorded: low micromolar range” and the “efficiency at inhibiting the exchange activity of Tgat relative to TRIPα” value is on record as “about 15 times”.

GST-TRIPT16M/L17S: the “effect on exchange activity of Lbc/RhoA” value on Lbc is given as “no effect”. The “effect on exchange activity of p63RhoGEF/RhoA” value on p63RhoGEF is “no effect”. Moreover, the “inhibition of Tgat exchange activity on RhoA” value in the experiment with Tgat [2] is “fully inhibited”. Moreover, the “effect on exchange activity of Dbl/RhoA” value in the experiment on Dbl was “no effect”. For the same substance, in the experiment with Tgat [1], the “efficiency relative to TRIPα (Tgat GEF activity)” value is recorded as 15 fold, the Ki is 5.1 ± 4 µM, the “inhibition of Tgat GEF activity” value was “inhibited Tgat GEF activity in a dose-dependent manner; also recorded: low micromolar range” and the “efficiency at inhibiting the exchange activity of Tgat relative to TRIPα” value is “about 15 times”.
